In patent US11786515B2, “Anesthetic mixtures formulations for local anesthesia, at very low concentration, to be used cold with suitable packaging” (L. MOLTENI & C. DEI FRATELLI ALITTI-SOCIETA′ DI ESERCIZIO …, priority 2018, dated 2023):
Counter-ions that a name gives are not always drawn.

What was measured:
[1] = cited from earlier work; for toxic dose: long-acting anesthetics
[2] = Toxic and maximum doses of local anesthetics (state of the art)
From the text: The Articaine hydrochloride always belongs to the group of the short-acting local anesthetics.

[3] = combined with a vasoconstrictor such as adrenaline

SMILES	maximum volume ([2]; 5 mg/ml solution (0.5%)) [mL]	toxic dose [1] [mg/kg body]	also measured
CCCNC(C)C(=O)Nc1c(C)csc1C(=O)OC (centres unmarked) [Articaine hydrochloride]	–	–	toxic dose / tolerance compared with other short-acting anesthetics ([1]; in vivo): overlapping to that of the lidocaine and mepivacaine
CCCCN1CCCCC1C(=O)Nc1c(C)cccc1C (centres unmarked) [Bupivacaine hydrochloride]	30	2	–
CCCCN1CCCC[C@H]1C(=O)Nc1c(C)cccc1C [Levobupivacaine hydrochloride]	30	2	–
CCN(CC)CC(=O)Nc1c(C)cccc1C [Lidocaine, Lidocaine hydrochloride]	–	–	maximum volume ([2]; human, in vivo): 15 mL; maximum dosage [1, 3]: 7 mg/kg; maximum dose [1, 3]: 500 mg
